Measurements from patent publication US20060045883A1, “Anti-cancer vaccines” (priority 2004, published 2006).
“And” between values parts separate entries of the source, which are not always exact repeats. Equal values may be shown once.

Tests used:
[1] = test system: HLA-A2 transfected K562 leukemic cell line; assay: Killing of leukemic cell line by CCNE1 peptide-stimulated CTL lines; type: cell-based, human
Description: Thus, each peptide-specific CTLs can recognize both peptides with HLA-A2, but the immunogenicity of each peptide is different between individuals. Moreover, one of 4 CCNE1144-152-stimulated CTL lines which killed CCNE1144-152-pulsed T2 cell killed HLA-A2 transfected K562 leukemic cell line which is over-expressing cyclin E1 protein, but not non-transfected K562 leukemic cell line. Thus, CCNE1144-152-specific CTL can distinguish leukemic cell lines from normal PBMCs. From the data, it was concluded that cyclin E1/E2 derived peptides are potential tumor-antigens, because 1) cyclin E1/E2 are highly over-expressed in hematological malignancy, 2) cyclin E1/E2 peptides can sufficiently bind to HLA-A2 to stimulate CTL and 3) CCLE1144-152 specific CTL preferentially kills leukemic cell lines HLA-A2 restrictively.

HLA-A2 = biological target: T1, HLA-A2 (Homo sapiens, UniProt P04439, D140Y/D185E/D98H/E176V/E277Q/G131W/G231S/I119V/I121R/I166T/I218V/L300P/L318F/N151K/N90K/P208A/P217A/Q86G/Q94H/R138H/R169H/T345S); assay: Peptide-binding assay: stabilization of HLA-A2 on the surface of T2 cells, compared to PR1
T1 construct: measure HLA-A2.1 surface expression on the A2+ T2 cell line coated with the peptide; host or cells: T2 cells
Description: (§1) Nonameric peptides derived from cyclin E1 and cyclin E2 and predicted to bind to the HLA-A2 allele have similar amino acid sequences, differing only at position 7. Thus, the binding of CCNE1144-152 (cyclin E1 derived) and CCNE2144-152 (cyclin E2 derived) was compared to that of PR1 by a peptide-binding assay. The ability of CCNE1144-152 and CCNE2144-152 to stabilize HLA-A2 on the surface of T2 cells was almost the same as that of PR1 (FI CCNE1144-152/FI PR1=1.008, FI CCNE2144-152/FI PR1=1.189). […] In 3 of 7 donors, CCNE1144-152-stimulated CTL lines killed both CCNE1144-152 and CCNE 2144-152-pulsed T2 cells but not non-peptide-pulsed T2 cells and irrelevant peptide-pulsed T2 cells. In 4 of 7 same donors, CCNE2144-152-stimulated CTL lines killed both CCNE2144-152 and CCNE1144-152-pulsed T2 cells but not non-peptide-pulsed T2 cells and irrelevant peptide-pulsed T2 cells.

peptide-pulsed T2 cells = assay: Elicitation of cyclin E peptide-specific CTL with peptide-pulsed T2 cells; type: cell-based, human; conditions: PBMCs from 7 HLA-A2 positive normal donors
Description: as §1

[2] = test system: PR1-CTL from a healthy donor; assay: Annexin V apoptosis of PR1-CTL challenged with peptide-pulsed T2 cells; type: cell-based, human; conditions: for apoptosis of high avidity PR1-CTL: T2 cells pulsed with 20 μM peptide, Annexin V 16 to 18 hr
Description: High PR1 concentration and proteinase 3-overexpressing CML cells induce apoptosis of high avidity PR1-specific CTL. […] All high avidity PR1-CTL exposed to high dose PR1 were dead after 36 to 48 hr of co-culture.

HLA-A2.1 = HLA-A2.1 (Homo sapiens, UniProt P04439, D140Y/D185E/D98H/E176V/E277Q/G131W/G231S/I119V/I121R/I166T/I218V/L300P/L318F/N151K/N90K/P208A/P217A/Q86G/Q94H/R138H/R169H/T345S); assay: HLA-A2.1 surface expression on peptide-coated T2 cells by indirect flow cytometry (BB7.2); type: binding; conditions: for Median Channel of Fluorescence of HLA-A2 Expression on T2: peptide-coated T2 cells, background HLA-A2 22; for surface HLA-A2.1 expression on peptide-pulsed T2 cells: compared with T2 cells with no added peptide / positive control influenza peptide
[3] = test system: human myeloid leukemia cells; assay: Cytotoxicity of peptide-elicited CTL lines against fresh myeloid leukemia marrow and normal marrow; type: cell-based
Description: (§2) PR1 specific CTL preferentially lyse human myeloid leukemia cells. It was next determined whether the PR1-specific CTL line was capable of lysing allogeneic human myeloid leukemia cells from HLA-A2.1 positive individuals. As controls, two cell lines expressing low levels of Pr3 were used: HLA-A2.1 transfected K562 cells and U937 cell line which lack HLA-A2.1 and would therefore be incapable of presenting peptides in an HLA-A2.1-restricted manner. Cryopreserved bone marrow cells from patients P1-P4, and marrow cells from a healthy normal volunteer (D2, a bone marrow donor for an allogeneic bone marrow transplant performed on patient P3) were thawed and used as targets for the PR1-specific CTL line.
(§3) It was next determined whether the MY2 and MY4-specific CTL lines were capable of lysing allogeneic human myeloid leukemia cells from HLA-A2.1 positive individuals. The targets were BM cells from pre-transplant HLA-A2.1-positive AML patients. As controls, BM cells from HLA-A2.1-negative AML patients, BM from HLA-A2.1-positive healthy donors and two cell lines expressing low levels of MPO were used: HLA-A2.1 transfected K562 cells and the U937 cell line which lacks HLA-A2.1 and would therefore be incapable of presenting peptides in an HLA-A2.1-restricted manner.

[4] = as above; type: cell-based, human
Description: as §2, §3

T2 cells = assay: Peptide-specific cytotoxicity of peptide-elicited CTL lines against peptide-loaded T2 cells; conditions: T2 cells loaded with the same peptide; 4-hr assay, varying E:T
Protocol: CTL cytotoxicity assay. A semiautomated minicytotoxicity assay was used to determine specific lysis as described previously (Molldrem, 2000; Molldrem et al., 1996). Briefly, effector cells were prepared in doubling dilutions from 6×10^3 to 25×10^3 cells/well and were plated in 40 μl, 60-well Terasaki trays (Robbins Scientific, Sunnyvale, Calif., USA) with six replicates per dilution. Target cells (T2 cells, marrow-derived leukemic cells, or BM from a healthy donor) at a concentration of 2×10^6 cells/ml were stained with 10 μg/ml of Calcein-AM (Molecular Probes Inc.) for 60 min at 37° C. After washing three times in CM plus 10% AB, target cells were resuspended at 10^5 cells/ml, and 10^3 target cells in 10 μl medium were added to each well containing effector cells. Wells with target cells alone and medium alone were used for maximum (max) and minimum (min.) fluorescence emission, respectively. After 4 hr incubation at 37° C. in 5% CO2, 5 μl FluoroQuench (One Lambda Inc., Canoga Park, Calif., USA) was added to each well, and the trays were centrifuged for 1 min at 60 g before measurement of fluorescence using an automated CytoFluor II plate reader (PerSeptive Biosystems, Framingham, Mass., USA). The percentage of lysis was calculated as follows: % lysis={1−[(mean experimental mission−mean min.)/(mean max−mean min.)]}×100%.
Induction of Primary CTL responses to peptides. These peptides were next used to stimulate T cells specific for peptide-coated targets. PBMC from a normal healthy donor heterozygous for HL-A2.1 were stimulated with peptide-pulsed T2 cells. […] Briefly, T2 cells (which co-express the costimulatory molecule B7.1) were washed 3 times in serum-free RPMI culture media supplemented with penicillin/streptomycin and glutamine (CM) and incubated with peptide at 20 μg/mL for 2 hr in CM. The peptide loaded T2 cells were then irradiated with 7500 cGy, washed once, and suspended with freshly isolated PBMC at a 1:1 ratio in CM supplemented with 10% human serum (HS) (Sigma, St. Louis, Mo.). After 7 days in culture, a second stimulation was performed and the following day, 60 IU/mL of recombinant human interleukin-2 (rhIL2) (Biosource International, Camarillo, Calif.) was added. After 14 days in culture a third stimulation was performed, followed on day 15 by addition of rhIL-2. A fourth stimulation was performed on day 21 followed on day 22 by the addition of rhIL2. After a total of 27 days in culture, the peptide-stimulated T cells were harvested and tested for peptide-specific cytotoxicity toward Calcein AM-labeled T2 cells, leukemia cell lines, and fresh human leukemia cells.
The five MPO peptides discussed above, were used to stimulate T cells specific for peptide-coated targets. […]

[5] = test system: AML colony-forming units (CFU-GM); assay: Colony inhibition assay with MY4 peptide-pulsed CTL; type: cell-based, human
Description: In contrast there was no inhibition of CFUGM from normal marrow, D1 and D2, the corresponding HLA identical marrow donors for P1 and P2.

[6] = test system: patients with myeloid leukemia; assay: Phase I/II PR1 peptide vaccine study; type: in vivo, human
Protocol: PR1 peptide is injected subcutaneously in incomplete Freund's adjuvant every 3 weeks for 3 injections to induce a PR1 specific host response against the myeloid leukemia. […] Vaccination at 3 dose levels of peptide with a fixed amount of IFA will be conducted, and stopping criteria will be guided by established toxicity criteria.
HLA-A2^+ patients with CML (interferon-resistant or relapsed after BMT), AML (smoldering relapse or ≧2nd CR) or MDS (RAEB or RAEBt) with no detectable antibodies to proteinase 3 (no detectable cANCA) were eligible. Patients that relapsed after BMT or those ineligible for BMT were also eligible for study. Pregnant patients, HIV+ patients, and those with known vasculitis were excluded. Patients were required to have immunosuppression (i.e. cyclosporine, steroids) discontinued 4 weeks prior to study entry.
Secondarily, clinical responses were assessed by standard criteria with bone marrow biopsy, cytogenetic studies (standard chromosome banding) and molecular studies (PCR for bcr-abl or other known abnormalities such as t(15;17), inv16, etc.) 3 weeks after the last vaccination. Patients were seen and evaluated in clinic every 3 weeks during the study period. Both vialed PR1 peptide (NSC698102) and the adjuvant (Montanide ISA-51, NSC675756) were used in this study. […]

[7] = test system: P3-HMy.CIR-A2 target cells; assay: Proliferation (BrDU incorporation) of PR1-specific CTL lines with P3-transfected B cells; type: cell-based, human; conditions: CTL lines from two healthy donors
Description: (§4) The leukemia-associated antigen PR1 is derived from both proteinase 3 and neutrophil elastase proteins. The inventors have shown that killing of leukemia cells by PR1-specific CTL correlates with P3 overexpression. However, the PR1 sequence is also contained within neutrophil elastase (NE), which is also aberrantly expressed in leukemia cells. To determine whether PR1 is processed and presented from either protein, P3- and NE-transfected B cells were used as target cells in a proliferation assay with PR1-specific T cells. Full-length P3 and NE cDNA was cloned from the promyelocytic HL-60 cell line based on published sequences. The sequences were subcloned into an EGFP-containing vector (pCMS-EGFP) with a CMV promoter to drive constitutive expression. The B cell line, HMy-CIR, previously stably transfected with the HLA-A*0201 gene, was transfected with P3-pCMS-EGFP and NE-pCMS-EGFP by electroporation for 24 hr. GFP-expressing cells (P3-HMy.CIR-A2 and NE-HMy.CIR-A2, respectively) were selected by FACSorting and high transfection levels were confirmed by fluorescence microscopy. […] By contrast, NE transcript numbers from a transfected clone were 7-fold less than in HL-60 cells. Western blotting confirmed protein expression in the NE-HMy.CIR-A2-transfected cells, although expression was similarly less than in HL-60 cells. […]

NE-HMy.CIR-A2 = assay: Proliferation (BrDU incorporation) of PR1-specific CTL lines with NE-transfected B cells; type: cell-based, human; conditions: CTL lines from two healthy donors
Description: as §4

[8] = test system: HMy2.CIR-A2 cells transfected with Pr3; assay: Lysis of Pr3-transfected B cells by PR1 specific CTL; type: cell-based, human; conditions: E:T 25:1
Protocol: Expression of proteinase 3 following transfection into and HMy2.CIR and HMy2.CIR-A2 cells. […] The parental HMy2.CIR cell line, which has lost expression of HLA-A and -B, and the HLA-A2.1-transfected HMy2.CIR cells (named HMy2.CIR-A2), were both transfected with Pr3 as described below.
Ten million HMy2.CIR (ATCC, Rockville, Md.), or 10 million HMy2.CIR-A2 cells were each washed in phosphate buffered saline (PBS) and re-suspended in 0.8 mL of ice-cold PBS and put into an electroporation cuvette with 20 μg of circular plasmid DNA. The mixture was exposed to an electric pulse of 320 volts at 960 microF and incubated on ice for 10 min. Cells were then added to 10 mL of pre-warmed CM. The following day, the CM was replaced. On day 2, cells were grown under selection conditions using 200 μg/mL Zeocin. Following one week of selection, the cells were subcloned by limiting dilution under Zeocin selection, and 6 clones were isolated.
HMy.2.CIR-A2 cells transfected with Pr3 are susceptible to lysis by PR1 specific CTL. It was next determined whether the transfected HMy2.CIR-A2 cells could be lysed by PR1 specific CTL. The PR1 specific CTL were elicited in the manner previously described, and after 22 days in culture were combined at a 25:1 E:T ratio with HMy2.CIR-A2 transfected either with the Pr3-containing vector pRTZ.2, or the empty vector containing the reporter gene, CAT. […]

[9] = test system: human myeloid leukemia cells; assay: Cytotoxicity of peptide-elicited CTL lines against fresh myeloid leukemia marrow and normal marrow; type: cell-based; remark: listed apart in the source

Substance: CCNE1144-152: nonameric peptide derived from cyclin E1, predicted to bind to the HLA-A2 allele
- CTL lines that killed HLA-A2 transfected K562 but not non-transfected K562 [1]: one of 4
- FI peptide/FI PR1 (HLA-A2 stabilization on T2 cells) (HLA-A2): 1.008
- donors in whom peptide-stimulated CTL lines killed peptide-pulsed T2 cells (peptide-pulsed T2 cells): 3 of 7

Substance: CCNE2144-152: nonameric peptide derived from cyclin E2, predicted to bind to the HLA-A2 allele (ILLDWLLEV)
- FI peptide/FI PR1 (HLA-A2 stabilization on T2 cells) (HLA-A2): 1.189
- donors in whom peptide-stimulated CTL lines killed peptide-pulsed T2 cells (peptide-pulsed T2 cells): 4 of 7

Substance: Influenza nucleoprotein: control influenza peptide, Influenza B nucleoprotein (aa 85-94), known high binding affinity to HLA-A2.1 (KLGEFYNQMM) [reference compound]
- apoptosis of high avidity PR1-CTL [2]: no apoptosis was observed
- Median Channel of Fluorescence of HLA-A2 Expression on T2 (HLA-A2.1): 194

Substance: KLLLALAGL [MY2]
- lysis of HLA-A2.1-positive AML marrow cells by peptide-specific CTL [3]: readily lysed
- specific lysis of HLA-A2+ normal BMC by peptide-specific CTL [4]: 45%
- lysis by MY2-specific CTL lines ([4]; marrow cells from HLA-A2.1-positive normal healthy donor, E:T 20:1): 43%
- peptide-specific lysis by CTL line generated against the peptide (T2 cells): high specific lysis

Substance: KLNDILLIQL [PR71]
- surface HLA-A2.1 expression on peptide-pulsed T2 cells (HLA-A2.1): strong peptide binding

Substance: KLNDVLLIQL [PR7V]
- surface HLA-A2.1 expression on peptide-pulsed T2 cells (HLA-A2.1): strong peptide binding

Substance: RLFEQVMRI [MY4]
- lysis of HLA-A2.1-positive AML marrow cells by peptide-specific CTL [3]: killed AML cells, but not normal cells
- specific lysis of HLA-A2+ normal BMC by peptide-specific CTL [4]: no lysis of normal BMC
- peptide-specific lysis by CTL line generated against the peptide (T2 cells): tested similarly
- inhibition of CFU-GM by MY4 peptide-pulsed CTL ([5]; normal marrow, D1 and D2 (HLA identical donors)): no inhibition
- inhibition of CFU-GM by MY4 peptide-pulsed CTL (CTL1) ([5]; patient P1 (M2-AML)): 63%
- inhibition of CFU-GM by MY4 peptide-pulsed CTL (CTL1) ([5]; patient P2 (M4-AML)): 34%

Substance: RLFPDFFTRV [PR2]
- peptide-specific lysis by CTL line generated against the peptide (T2 cells): did not demonstrate any significant cytotoxicity
- surface HLA-A2.1 expression on peptide-pulsed T2 cells (HLA-A2.1): increased surface HLA-A2.1 expression
- Median Channel of Fluorescence of HLA-A2 Expression on T2 (HLA-A2.1): 273

Substance: VLQELNVTV [PR1, HLA-A2.1-restricted nonamer (aa 169-177) derived from proteinase 3]
- PR1-specific CTL immunity elicited (by tetramer staining) ([6]; 0.25, 0.5 or 1.0 mg s.c. every 3 weeks for 3 injections): 6 of 9
- complete remissions ([6]; 9 patients (1 AML and 1 CML patient)): 2 patients
- specific lysis by CTL specific for PR-1 ([3]; marrow cells from a patient with CML in blast crisis, E:T 25:1): 73%
- specific lysis by PR1-specific CTL line ([3]; marrow cells of P1 (CML in chronic phase), E:T 6:1): 53%
- lysis by PR1-specific CTL line ([4]; marrow cells from normal healthy donor (D2)): < 20%
- peptide-specific lysis by CTL line generated against the peptide (T2 cells): high specific lysis
- stimulation indices (SI) of PR1-specific CTL lines [7]: 1.3 and 2.4
- apoptosis of high avidity PR1-CTL [2]: underwent apoptosis
- apoptosis of low avidity PR1-CTL ([2]; high or low concentrations of PR1): did not undergo apoptosis
- surface HLA-A2.1 expression on peptide-pulsed T2 cells (HLA-A2.1): increased surface HLA-A2.1 expression
- Median Channel of Fluorescence of HLA-A2 Expression on T2 (HLA-A2.1): 294
- stimulation indices (SI) of PR1-specific CTL lines (NE-HMy.CIR-A2): 1.5 and 2.1
- specific lysis by PR1 specific CTL ([8]; Pr3-transfected cells (clone 1.4)): 36%
- lysis of negative control targets by PR1 specific CTL ([8]; normal marrow cells, HL-60, HMy2.CIR with empty vector (CAT), non-transfected parent line): only background lysis
- lysis of CML #3 BM cells by CTL elicited with 0.2 μM PR1 ([9]; CTL from patient CML #1, E:T 20:1): 24%±5%
- lysis of CML #3 BM cells by CTL elicited with 0.2 μM PR1 ([9]; CTL from patient CML #2, E:T 20:1): 33%±6%
- fold greater lysis of CML BM cells, CTL elicited with 0.2 μM vs 20 μM PR1 ([9]; per cell basis, 4-hr cytotoxicity assay): ~2 fold
